“And” between values parts separate entries of the source, which are not always exact repeats. Identical values can stand only once.
Experiments:
[1] = molecular target: T1, RNA-protein complexes of GST-hnRNP-E1 and 25-nt hnRNP-E1 mRNA cis-element (Homo sapiens, UniProt Q15365, A205V); experiment: Gel-shift assay: effect of thiols, iron and deferoxamine on RNA-protein complex formation; type: binding; conditions: 100-μM thiol
T1 construct: made in house; host or cells: Escherichia coli BL21

[2] = tested on: HPV16 L2 mRNA cis-element; experiment: Gel-shift assay of hnRNP-E1 proteins with HPV16 L2 mRNA; type: binding, Human Papillomavirus type 16; conditions: absence of reducing agents; versus wild-type and G292A
Protocol: (§1) Parenthetically, there was no significant difference in RNA binding to GST-hnRNP-E1 by use of either 32P-RNA probes or 35S-labeled RNA probes used. Other studies assessed the effect of iron(II) or iron(III) on homocysteine-induced RNA-protein interactions.
(§2) Construction of plasmids for generation of HPV16 L2 RNA, gel-shift and in vitro translation studies were carried as described with additional treatments shown in FIGS. 10A-10D

folate receptor-α mRNA = experiment: In vitro translation of folate receptor-α; type: biochemical, human
Protocol: (§3) In vitro transcription-translation was carried out using the Linked SP6/T7 In Vitro Transcription/Translation Kit (Roche Applied Science) after addition of one of various targeted DNAs—pSPT18-25-hnRNP-E1 DNA, or Pst1-linearized plasmid pSPT18-folate receptor-α, or HPV16 L2 DNA, (0.5 μg/reaction)—to the transcription mix as described. In other experiments, the capacity for perturbing the interaction of hnRNP-E1 with the 25-nt hnRNP-E1 cis-element during in vitro translation was assessed in the presence of either scrambled oligonucleotides (5′-GCGTCGCTCGCTTCGCACGTGCGCC-3′ SEQ ID NO:20) or specific antisense oligonucleotides (5′-GGG AGC GAG CGG GCG GGA G-3′ SEQ ID NO:21) generated against the 25-nt hnRNP-E1 mRNA cis-element (GenScript USA, Piscataway, N.J.).

[3] = molecular target: hnRNP-E1 binding to folate receptor mRNA and hnRNP-E1 mRNA cis-element (Homo sapiens, UniProt Q15365); conditions: physiologically relevant thiols; cited from earlier work
[4] = molecular target: [^35S]25-nt hnRNP-E1 mRNA cis-element; experiment: Dissociation constant (KD) of GST-hnRNP-E1 or its mutant proteins for the 25-nt hnRNP-E1 mRNA cis-element; type: binding, human; conditions: L-Homocysteine 0 μM
Protocol: (§4) Methods for testing the ability of an engineered hnRNP-E1 variant polypeptide to bind to an RNA comprising the sequence of SEQ ID NO:6 are known in the art. Such methods include, but are not limited to, RNA electrophoretic mobility shift assays, as exemplified herein, RNA pull-down assays, and oligonucleotide-targeted RNase H protection assays. Such assays are conducted in the presence or absence of homocysteine to determine the RNA-binding dependence of any particular hnRNP-E1 polypeptide tested on the presence of homocysteine. […] Additional methods are outline in Tang et al. (“Incrimination of heterogeneous nuclear ribonucleoprotein E1 (hnRNP-E1) as a candidate sensor of physiological folate deficiency.” J Biol Chem. 2011; 286(45):39100-39115), which is incorporated herein in its entirety.
(§5) Specific binding was determined by subtracting values of non-specific binding with GST from those of total binding with GST-hnRNP-E1; (however, in Table 1 and FIG. 6G, non-specific binding using bovine serum albumin (BSA) was subtracted from total binding to GST-hnRNP-E1 to determine specific binding). The KD was calculated from a Scatchard plot using GraphPad Prism 6 from GraphPad Software (San Diego, Calif.), as previously described in the art.

[5] = tested on: 25-nt hnRNP-E1 mRNA cis-element; experiment: Gel-shift assay of hnRNP-E1 proteins with 25-nt hnRNP-E1 mRNA cis-element; type: binding, human; conditions: absence of L-homocysteine
Protocol: as §1
Recombinant GST-plasmid DNA, pGST-hnRNP-E1, pGST-hnRNP-E2, and related engineered variant plasmids were transformed into BL21 Escherichia coli from Novagen (Madison, Wis.). After induction by 1 mM isopropyl-1-thio-ß-D-galactopyranoside, the GST-hnRNP-E1 and engineered variant fusion proteins were individually purified using the B-PER GST Fusion Protein Purification Kit (Pierce, Rockford, Ill.). The eluted GST fusion proteins were dialyzed against 500 volumes of buffer to remove excess reducing reagents (such as dithiothreitol (DTT)) and assayed by SDS-PAGE and Western blots using anti-peptide hnRNP-E1 antiserum. Gel shift assays with target RNA were carried out as described.

HPV16 L2 RNA = experiment: In vitro translation of HPV16 L2 protein; type: biochemical, Human Papillomavirus type 16; conditions: after quenching excess ß-ME by NEM (2 mM)
Protocol: as §3, with “(5′-[…]-3′” for “(5′-GCGTCGCTCGCTTCGCACGTGCGCC-3′”, “(5′-[…]-3′” for “(5′-GGG AGC GAG CGG GCG GGA G-3′”
as §2

[6] = tested on: newly synthesized [^35S]folate receptors in placental 1584-HF cells; experiment: Biosynthetic rate of folate receptors after protein transfection into placental 1584-HF cells; type: cell-based, human; conditions: protein transfected in placental 1584-HF cells
Source text: (§6) Transfection of purified recombinant wild-type or various mutant hnRNP-E1 proteins into cells was achieved using the Xfect™ Protein Transfection Kit (Clontech, Mountain View, Calif.). Briefly, placental 1584-HF cells in 10-cm dishes at 70-80% confluence were transfected with 2.4-mL serum-free medium and Xfect Protein Transfection Reagent (1.2-mL) containing 20-μg of either wild-type hnRNP-E1-, or highest-affinity (HA)-hnRNP-E1(C293S)-mutant, or wild-type-like hnRNP-E1 (G292A)-mutant proteins and 2-μg of ß-galactosidase at 37° C. for 60-min. After cysteine-starvation for 4-h, an aliquot of cells were assessed for ß-galactosidase activity (to measure the efficiency of co-transfection of ß-galactosidase) and the remaining cells were pulsed with L-[^35S]cysteine (250-μCi) and assessed for specific [^35S]cysteine incorporated into folate receptor to determine the biosynthetic rate of this protein. A similar protocol was employed for analysis of newly synthesized [^35S]hnRNP-E1 using anti-hnRNP-E1 antiserum-coupled agarose and control agarose in order to derive values for specific [^35S]cysteine incorporated into hnRNP-E1 and thereby determine the biosynthetic rate of this protein.

[7] = tested on: newly synthesized [^35S]hnRNP-E1 in placental 1584-HF cells; experiment: Biosynthetic rate of hnRNP-E1 after protein transfection into placental 1584-HF cells; type: cell-based, human; conditions: protein transfected in placental 1584-HF cells
Source text: as §6

[8] = molecular target: [^35S]18-nt folate receptor-α mRNA cis-element; experiment: Dissociation constant (KD) of GST-hnRNP-E1 or its mutant proteins for the 18-nt folate receptor-α mRNA cis-element; type: binding, human; conditions: L-Homocysteine 0 μM; listed as wild-type-like hnRNP-E1(G292A)-mutant
Protocol: as §4, §5

[9] = tested on: newly synthesized [^35S]hnRNP-E1 in placental 1584-HF cells; experiment: Biosynthetic rate of hnRNP-E1 after oligonucleotide transfection into placental 1584-HF cells; type: cell-based, human; conditions: oligonucleotide transfected into placental 1584-HF cells
Source text: On the day before transfection, placental 1584-HF cells were trypsinized, counted, and plated in 6-well plates at 2×10^5 cells per well in 2.5-mL of MEM-HF medium, so that cells would be 70-80% confluent after overnight culture. Cells were then transfected with either wild-type, or scrambled DNA, or antisense DNA to 25-nt hnRNP-E1 cis-element using Lipofectamine 2000 DNA transfection reagent and the manufacturer's protocol. One well of cells was trypsinized and harvested on day-3 (2 days after transfection) as a control. Cells in the remaining 5 wells were starved of cysteine using cysteine-free MEM-HF for 4-h following which the rate of biosynthesis of hnRNP-E1 protein was determined in transfected cells by specifically immunoprecipitating and quantifying newly synthesized [^35S]hnRNP-E1.

hnRNP-E1 mRNA = experiment: In vitro translation of hnRNP-E1; type: biochemical, human; conditions: agent added to translation mixture (4.1-mM ß-ME)
Protocol: as §3, with “(5′-[…]-3′” for “(5′-GCGTCGCTCGCTTCGCACGTGCGCC-3′”, “(5′-[…]-3′” for “(5′-GGG AGC GAG CGG GCG GGA G-3′”

[10] = molecular target: T1, RNA-protein complexes of GST-hnRNP-E1 and 25-nt hnRNP-E1 mRNA cis-element; experiment: Gel-shift assay: effect of thiols, iron and deferoxamine on RNA-protein complex formation; type: binding; conditions: fixed L-homocysteine
Protocol: Other studies assessed the effect of iron(II) or iron(III) on homocysteine-induced RNA-protein interactions.
Studies were conducted to evaluate the effect of iron(II) (as ferrous sulfate heptahydrate) or iron(III) (as ferric chloride hexahydrate) in modulating RNA-protein interactions during gel-shift assays in either the absence or presence of 10-mM glutathione. The iron preparation, either alone or with 50-μM of deferoxamine (DFO) to define the specificity of iron(II), was incubated first with glutathione and hnRNP-E1 before addition of other components of the reaction mixture. […] The samples were analyzed by PAGE and autoradiography overnight followed by densitometric analysis of the signals representing RNA-protein complexes.

[11] = listed as wild-type-like hnRNP-E1(G292A)-mutant

T1 sequence (Q15365 whole entry A205V, one chain of several): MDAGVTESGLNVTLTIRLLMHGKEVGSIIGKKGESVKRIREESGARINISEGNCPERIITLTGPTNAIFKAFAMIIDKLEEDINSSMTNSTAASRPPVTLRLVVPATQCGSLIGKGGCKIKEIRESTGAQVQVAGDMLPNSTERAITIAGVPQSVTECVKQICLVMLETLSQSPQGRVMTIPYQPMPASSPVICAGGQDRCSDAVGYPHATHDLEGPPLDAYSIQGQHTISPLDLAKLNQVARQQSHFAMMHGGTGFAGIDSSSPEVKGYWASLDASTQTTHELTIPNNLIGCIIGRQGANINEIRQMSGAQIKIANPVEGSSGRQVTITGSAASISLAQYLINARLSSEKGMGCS
hnRNP-E1 binding to folate receptor mRNA and hnRNP-E1 mRNA cis-element, sequence (Q15365 whole entry): as the sequence (Q15365 whole entry A205V, one chain of several) above, with V205A counted along it

O[C@H](CS)[C@H](O)CS (racemic) [dithiothreitol]
RNA-protein signals relative to L-homocysteine [1]: much stronger RNA-protein signals

hnRNP-E1(C54S)-mutant: hnRNP-E1 with cysteine-54 replaced by serine (SEQ ID NO:3)
interaction with HPV16 L2 mRNA on gel-shift assays [2]: greater interaction | translation of folate receptor-α (folate receptor-α mRNA; presence of 2-mM NEM): maximally increased

NC1CCSC1=O (stereo not shown) [homocysteine thiolactone]
hnRNP-E1 activation and mRNA-binding [3]: far less

N[C@@H](CS)C(=O)O [L-Cysteine, L-cysteine]
RNA-protein signals relative to L-homocysteine [1]: far weaker | hnRNP-E1 activation and mRNA-binding [3]: far less

GST-hnRNP-E1(G292A): control mutant, glycine-292 mutated to alanine; behaved similar to wild-type hnRNP-E1
Kd [4]: 2.02 nM | RNA-protein gel-shift signal [5]: no RNA-protein gel-shift signals | HPV16 L2 protein signal (HPV16 L2 RNA): insignificant reduction of HPV16 L2 protein signal | [^35S]cysteine-folate receptor [6]: 1.79 ± 0.13 b fmol/mg protein/h | [^35S]cysteine-folate receptor [6, 11]: 1.79 fmol/mg protein/h | [^35S]cysteine-hnRNP-E1 [7]: 1.03 ± 0.21 b fmol/mg protein/h | [^35S]cysteine-hnRNP-E1 [7, 11]: 1.03 fmol/mg protein/h | Kd [8]: 1.57 nM and 1.5 nM

NC(CCS)C(=O)O (racemic) [DL-homocysteine]
hnRNP-E1 activation and mRNA-binding [3]: far less

Scrambled: scrambled oligonucleotides (5′-GCGTCGCTCGCTTCGCACGTGCGCC-3′ SEQ ID NO:20) (GCGTCGCTCGCTTCGCACGTGCGCC; chemistry not given here)
[^35S]cysteine-hnRNP-E1 protein [9]: 1.01 ± 0.03 a fmol/mg protein/h | [^35S]cysteine-hnRNP-E1 protein ([9]; listed as scrambled-oligonucleotides): 1.0 fmol/mg protein/h | effect on in vitro translation of hnRNP-E1 (hnRNP-E1 mRNA): failed to quench the translation of hnRNP-E1

O.O.O.O.O.O.[Cl-].[Cl-].[Cl-].[Fe+3] [iron(III), ferric chloride hexahydrate]
effect on RNA-complex formation ([10]; 10-mM glutathione): comparable dose-dependent reduction in RNA-complex formation | effect on formation of RNA-protein complexes ([10]; no glutathione): no such influence

OCCS [ß-ME, ß-mercaptoethanol]
RNA-protein signals relative to L-homocysteine [1]: much stronger RNA-protein signals

CSCC[C@H](N)C(=O)O [methionine]
RNA-protein signals relative to L-homocysteine [1]: no detectable signals | hnRNP-E1 activation and mRNA-binding [3]: did not have any effect

N[C@H](CCS)C(=O)O [D-homocysteine]
hnRNP-E1 activation and mRNA-binding [3]: did not have any effect

N[C@@H](CCC(=O)N[C@@H](CS)C(=O)NCC(=O)O)C(=O)O [glutathione]
RNA-protein signals relative to L-homocysteine [1]: no detectable signals | hnRNP-E1 activation and mRNA-binding [3]: far less

Antisense: antisense oligonucleotides (5′-GGG AGC GAG CGG GCG GGA G-3′ SEQ ID NO:21) against the 25-nt hnRNP-E1 mRNA cis-element (antisense GGGAGCGAGCGGGCGGGAG; chemistry not given here)
[^35S]cysteine-hnRNP-E1 protein [9]: 0.62 ± 0.02 b fmol/mg protein/h | [^35S]cysteine-hnRNP-E1 protein ([9]; listed as antisense oligonucleotides): 0.62 fmol/mg protein/h | effect on in vitro translation of hnRNP-E1 (hnRNP-E1 mRNA): dose-dependent inhibition of translation of hnRNP-E1

CCN1C(=O)C=CC1=O [N-ethylmaleimide]
effect on in vitro translation of hnRNP-E1 (hnRNP-E1 mRNA): progressive reduction in the amount of hnRNP-E1 translated | basal translation of folate receptor-α mRNA in vitro (folate receptor-α mRNA; increasing NEM): diminished in a dose-dependent manner
